Measurements taken from patent US20260132123A1, “ABAD INHIBITOR COMPOUNDS” (UNIVERSITY COURT OF THE UNIVERSITY OF ST ANDREWS, priority 2021, published 2026).

Molecular target: T1, 17β-HSD10 (Homo sapiens, UniProt Q99714)
T1 construct: Histev (histidine tag with TEV site) (N, cleaved yes); made in house; host or cells: E. coli BL21-CodonPlus
T1 sequence (Q99714 1-261): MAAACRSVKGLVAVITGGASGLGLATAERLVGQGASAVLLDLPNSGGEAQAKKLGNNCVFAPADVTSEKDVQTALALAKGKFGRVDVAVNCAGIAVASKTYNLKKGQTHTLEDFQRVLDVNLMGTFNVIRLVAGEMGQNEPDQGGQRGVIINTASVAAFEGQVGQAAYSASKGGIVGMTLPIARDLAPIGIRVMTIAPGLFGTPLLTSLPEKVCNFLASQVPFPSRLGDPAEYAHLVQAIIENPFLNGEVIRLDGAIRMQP
Assay: 17β-HSD10 (ABAD) enzyme inhibition assay, NADH oxidation read at 340 nm (primary screen and dose response)
Type: biochemical
Conditions: for EC50 / Max. Effect (%) / Hill Slope / Max. Fit / Min. Fit: recombinant 17βHSD10 enzyme assay; for Hill Slope / Max. Fit / Min. Fit: curve fit
Procedure, shortened: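 Tag-cleaved recombinant human 17β-HSD10 (2.5 nM) preincubated 15 min with compound in Tris pH 7.4, NaCl, DTT, Tween, BSA (catalase in some runs), then 100 μM acetoacetyl-CoA and NADH added. NADH oxidation by A340 fall: 35 min endpoint for screening at 10 μM; continuous 45 min for dose response.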

EC50 | Max. Effect (%) | Hill Slope | Max. Fit | Min. Fit | 17β-HSD10 / ABAD activity in words (SAR discussion) | SMILES
0.245 µM | 98% | 1.1 | 97 | −3 |  | COc1ccc(C(=O)N(CC(C)C)c2cccc(N(C)Cc3c[nH]cn3)c2)c(F)c1 [ESC1002576]
8.13 µM | 72% | 0.95 | 100 | −1 |  | CC(C)CN(C(=O)c1ccccc1F)c1cccc(N(C)CCO)c1 [ESC1002577]
> 20 µM | 30% |  |  |  |  | CC(C)CN(C(=O)c1ccc[nH]c1=O)c1cccc(N(C)Cc2c[nH]cn2)c1 [ESC1002614, N-[3-[1H-imidazol-4-ylmethyl(methyl)amino]phenyl]-N-isobutyl-2-oxo-1H-pyridine-3-carboxamide]
6.92 µM | 76% | 0.9 | 108 | −6 |  | CC(C)CN(C(=O)c1ccccc1S(C)(=O)=O)c1cccc(N(C)Cc2c[nH]cn2)c1 [ESC1002622]
9.33 µM | 64% | 0.94 | 100 | −6 |  | CC(C)CN(C(=O)c1ccccc1F)c1cccc(NCc2c[nH]cn2)c1 [ESC1002631]
> 20 µM | 18% |  |  |  |  | CC(C)CN(C(=O)c1ccccc1F)c1cccc(NCc2c[nH]c(C(C)C)n2)c1 [ESC1002632]
> 20 µM | 45% | 0.93 | 100 | −3 | further losses in potency | CC(C)CN(C(=O)c1ccccc1F)c1cccc(N(C)Cc2c[nH]c(C(C)C)n2)c1 [ESC1002633]
5.5 µM | 79% | 0.98 | 101 | −1 |  | C#CCN(C)c1cccc(N(CC(C)C)C(=O)c2ccccc2F)c1 [ESC1002636]
> 20 µM | 45% |  |  |  |  | CC(C)CN(C(=O)c1cnccn1)c1cccc(N(C)Cc2c[nH]cn2)c1 [ESC1002656, N-[3-[1H-imidazol-4-ylmethyl(methyl)amino]phenyl]-N-isobutyl-pyrazine-2-carboxamide]
8.32 µM | 59% | 1.2 | 80 | −5 |  | CC(C)CN(C(=O)c1ccccc1F)c1cccc(N(C)Cc2c[nH]c(C3CC3)n2)c1 [ESC1002674]
4.47 µM | 75% | 1.2 | 87 | −2 |  | CC(C)CN(C(=O)c1ccccc1F)c1cccc(N(C)Cc2c[nH]nn2)c1 [ESC1002675]
11 µM | 64% | 1 | 100 | −6 |  | CC(C)CN(C(=O)c1ccccc1F)c1cccc(N(C)Cc2cn[nH]c2I)c1 [ESC1002687]
8.71 µM | 52% | 1.3 | 70 | −5 |  | CC(C)CN(C(=O)c1ccncn1)c1cccc(N(C)Cc2c[nH]cn2)c1 [ESC1002703]
5.13 µM | 81% | 1.1 | 94 | 0 |  | CC(C)CN(C(=O)c1ccccc1F)c1cccc(N(CCO)Cc2c[nH]cn2)c1 [ESC1002723]
> 20 µM | −3% |  |  |  |  | CC(=O)CN(CC(C)=O)c1cccc(N(CC(C)C)C(=O)c2ccccc2F)c1 [ESC1002724]
> 20 µM | 39% |  |  |  |  | CC(C)CN(C(=O)c1ccccc1F)c1cccc(N(C)CC#N)c1 [ESC1002762]
> 20 µM | 8% |  |  |  |  | CC(C)CN(C(=O)c1ccccc1F)c1cccc(NCc2nc[nH]n2)c1 [ESC1002763]
> 20 µM | 4% |  |  |  |  | CC(C)CN(C(=O)c1ccccc1F)c1cccc(-n2cnnc2)c1 [ESC1002764]

Continued, compound first:

SMILES | EC50 | Max. Effect (%) | Hill Slope | Max. Fit | Min. Fit | 17β-HSD10 / ABAD activity in words (SAR discussion)
COc1ccccc1C(=O)N(CC(C)C)c1cccc(N(C)Cc2c[nH]cn2)c1 [ESC1002458] | 0.55 µM | 96% | 1 | 97 | −7 | 
CCc1ccc(C(=O)N(CC(C)C)c2cccc(N(C)Cc3c[nH]cn3)c2)cc1 [ESC1002459, 4-ethyl-N-[3-[1H-imidazol-4-ylmethyl(methyl)amino]phenyl]-N-isobutyl-benzamide] | 0.832 µM | 93% | 1.2 | 94 | −4 | 
CC(C)CN(C(=O)c1ccc(Cl)s1)c1cccc(N(C)Cc2c[nH]cn2)c1 [ESC1002460, 5-chloro-N-[3-[1H-imidazol-4-ylmethyl(methyl)amino]phenyl]-N-isobutyl-thiophene-2-carboxamide] | 1.2 µM | 90% | 1 | 95 | −5 | 
Cc1ccsc1C(=O)N1CCC[C@@H]1c1ccccc1-c1ccccc1 [ESC1002462] | 0.234 µM | 99% | 1.4 | 98 | 6 | 
Cc1ccsc1C(=O)N1CCC[C@@H]1c1ccccc1-c1cnn(CCO)c1 [ESC1002463] | 3.47 µM | 87% | 0.79 | 110 | −6 | 
Cc1ccsc1C(=O)N1CCC[C@@H]1c1ccccc1-c1c[nH]nc1C [ESC1002464] | 2.04 µM | 84% | 1.1 | 91 | −5 | 
Cc1ccsc1C(=O)N1CCC[C@@H]1c1ccccc1-c1c[nH]nc1C(F)(F)F [ESC1002465] | 1.51 µM | 87% | 1.2 | 90 | −2 | 
Cc1ccsc1C(=O)N1CCC[C@@H]1c1ccccc1-c1cnn(C2CCNCC2)c1 [ESC1002466] | 18.2 µM | 52% | 1 | 95 | −1 | 
Cc1ccccc1C(=O)N(CC(C)C)c1cccc(N(C)Cc2c[nH]cn2)c1 [ESC1002491, N-[3-[1H-imidazol-4-ylmethyl(methyl)amino]phenyl]-N-isobutyl-2-methyl-benzamide] | 1.17 µM | 96% | 1 | 102 | 2 | 
Cc1ccc(C(=O)N(CC(C)C)c2cccc(N(C)Cc3c[nH]cn3)c2)c(C)c1 [ESC1002492, N-[3-[1H-imidazol-4-ylmethyl(methyl)amino]phenyl]-N-isobutyl-2,4-dimethyl-benzamide] | 0.871 µM | 93% | 0.73 | 104 | −10 | 
CC(C)CN(C(=O)c1ccccc1C(F)(F)F)c1cccc(N(C)Cc2c[nH]cn2)c1 [ESC1002493, N-[3-[1H-imidazol 4-ylmethyl(methyl)amino]phenyl]-N-isobutyl-2-(trifluoromethyl)benzamide] | 0.977 µM | 94% | 0.75 | 104 | −8 | 
COc1cccc(-c2ccccc2[C@H]2CCCN2Cc2ccccc2)c1 [ESC1002504] | > 20 µM | −6% |  |  |  | 
COc1cccc(-c2ccccc2[C@H]2CCCN2C(C)c2ccccc2)c1 (stereo partly drawn) [ESC1002505] | > 20 µM | 3% |  |  |  | 
COc1cccc(-c2ccccc2[C@H]2CCCN2C(=O)Cc2ccccc2)c1 [ESC1002506] | > 20 µM | 8% |  |  |  | 
CC(=O)NCCCN(C)c1cccc(N(CC(C)C)C(=O)c2ccccc2F)c1 [ESC1002507] | > 20 µM | 4% |  |  |  | 
CCCCN(C(=O)c1ccccc1F)c1cccc(N(C)Cc2c[nH]cn2)c1 [ESC1002508, N-butyl-2-fluoro-N-[3-[1H-imidazol-4-ylmethyl(methyl)amino]phenyl]benzamide] | 1.55 µM | 92% | 1.2 | 96 | 0 | 
Cc1cc(CN(C(=O)c2ccccc2F)c2cccc(N(C)Cc3c[nH]cn3)c2)no1 [ESC1002516, 2-fluoro-N-[3-[1H-imidazol-4-ylmethyl(methyl)amino]phenyl]-N-[(5-methylisoxazol-3-yl)methyl]benzamide] | > 20 µM | 46% |  |  |  | 
CN(Cc1c[nH]cn1)c1cccc(N(CC(C)(C)C)C(=O)c2ccccc2F)c1 [ESC1002517, N-(2,2-dimethylpropyl)-2-fluoro-N-[3-[1H-imidazol-4-ylmethyl(methyl)amino]phenyl]benzamide] | 2 µM | 92% | 0.87 | 106 | −1 | 
CC(C)CN(C(=O)c1ccccc1F)c1cccc(N(C)CC(N)=O)c1 [ESC1002570] | > 20 µM | 48% |  |  |  | 
CC(C)CN(C(=O)c1ccccc1F)c1cccc(NCC(N)=O)c1 [ESC1002571] | > 20 µM | 13% |  |  |  | 
CNC(=O)CN(C)c1cccc(N(CC(C)C)C(=O)c2ccccc2F)c1 [ESC1002572] | 11.2 µM | 65% | 0.98 | 100 | 2 | 
CNC(=O)CNc1cccc(N(CC(C)C)C(=O)c2ccccc2F)c1 [ESC1002573] | > 20 µM | 4% |  |  |  | 
